Read-outs that look alike come from different tables or passages of the source.
Key:
T98G cells = assay: PDGF-stimulated DNA synthesis, T98G cells (3H-thymidine); type: cell-based, human
Description: T98G cells in log phase growth were transferred to 96-well dishes at 20,000 cells in 200 μL of serum-containing growth medium. After an overnight attachment period, the monolayers were washed twice with 200 μL MCDB 105 medium and the cells were cultured in 200 μL serum-free MCDB 105 medium for 24 hr. […] The plates were incubated at 37° C. at ambient CO2 for approximately 18 hr. ^3 H-thymidine (Amersham, 5 Ci/mmol) was added to each well to yield a final concentration of 5 μCi/mL and the plates were returned to 37° C. incubator. After 4 hr the medium was removed, the plates were put onto ice, and washed twice with 200 μL ice-cold PBS per well. Radioactivity incorporated into DNA was separated from unincorporated ^3 H-thymidine by precipitation with 100 μL ice-cold TCA for 10 min on ice. […] Six mL of cocktail (Ready Safe, Beckman) was added and radioactivity quantified in a Beckman liquid scintillation counter model LS6000SC. […]
The effect on basal ^3 H-thymidine incorporation was determined in the absence of PDGF. […] Radioactivity incorporated into DNA was separated from unincorporated ^3 H-thymidine by precipitation with […] ice-cold TCA for 10 minutes. […] Six ml of cocktail (Ready Safe, Beckman) was added and radioactivity quantified in a Beckman liquid scintillation counter model LS6000 SC.

[1] = tested on: NIH3T3 cells overexpressing the human PDGF-b receptor; assay: PDGF-stimulated cell cycle progression, flow cytometry; type: cell-based, mouse
Description: NIH3T3 mouse fibroblasts overexpressing the human PDGF-β receptor were seeded in DMEM supplemented with 10% CS and 2 mM GLN. Cells were grown to about 80% confluence and then treated overnight in serum-free medium (DMEM, 2 mM GLN, 2 mM NEAA, 2 mM NaPyr, and 2 mM HEPES). […] Cells were then collected, strained and analyzed by flow cytometry for DNA content.
The percentage of cells in the S phase of the cell cycle was determined by flow cytometry.
The cells were analyzed for DNA content by flow cytometry.

C6 glioma cells = assay: C6 glioma SC xenograft in mice; type: in vivo
Description: Cell lines were grown in appropriate medium (see Appendix 1). Cells were harvested at or near confluency with 0.05% Trypsin-EDTA and pelleted at 450×g for 10 min. Pellets were resuspended in sterile PBS or media (without FBS) to a particular concentration and the cells were implanted into the hindflank of mice. Tumor growth was measured over 3 to 6 weeks using venier calipers. Tumor volumes were calculated as a product of length×width×height unless otherwise indicated. P values were calculated using the Students' t-test.
C6 and SKOV-3(T) cells were grown in culture, as described in "cell growth" above, and implanted into the hind flank of a female Balb/c nu/nu mouse at 3×10^6 cells (for C6 experiments), or 1×10^7 cells (for SKOV-3 experiments) in […] of PBS on Day 0. U87MG, U118MG or U373MG human glioblastoma cells (obtained from the ATCC), or A4312 were also implanted into athymic mice. […] Tumors were measured using venier calipers and tumor volume was calculated as a product of tumor length, width, and height.

[2] = Description: (§1) Plasma was prepared and frozen in liquid nitrogen. Tissues and organs were resected and immediately frozen in liquid nitrogen. After the addition of an internal standard, plasma samples were acidified with HCl and extracted with acetonitrile. The acetonitrile fraction was evaporated to dryness in a vacuum centrifuge with heating and redissolved in methanol. Tissue and organ samples were homogenized according to the weight ratio of 1:5 (w:v) in 50 mM Tris-HCl, pH 7.4, at 20,000 rev/min, using a tissue homogenizer (Brinkmann Polytron Model PT3000). After the addition of an internal standard, the homogenate was acidified with HCl and then extracted with acetonitrile. The acetonitrile fraction was then extracted with an equal volume of diethyl ether. The ether fraction was evaporated to dryness in a vacuum centrifuge with heating and redissolved in methanol.
(§2) Samples for HPLC analysis were injected onto a Hewlett Packard Hypersil 5-μm C18 cartridge column (100×4.6 mm). The mobile phase was methanol:35 mM KH2 PO4 (pH 4.5) 55:45 containing 4 mM triethylamine. The flow rate was 1.2 mL/min. The compounds were monitored by UV absorption at 254 nm using a Hewlett-Packard diode-array detector (HP Model 1090). Plasma and tissue concentrations were determined from standard curves using peak area for quantitation. […] The internal standard used was 5-methyl-pyrazole-4-carboxylic acid-(4-trifluoromethyl)-anilide.
(§3) Table XXII. […] Plasma and brain samples were prepared and analyzed by HPLC as described in Appendix 6. All results were calculated by the method of internal standardization. NT= not tested, ND= not detected.

[3] = type: in vivo, mouse; conditions: IP A10 40 mg/kg single dose
Description: as §1
Samples for HPLC analysis were injected onto a Hewlett Packard Hypersil 5-μm C18 cartridge column (100×4.6 mm). […] The compounds were monitored by UV absorption at 254 nm using a Hewlett-Packard diode-array detector (HP Model 1090). Plasma and tissue concentrations were determined from standard curves using peak area for quantitation. […]
as §3

in vivo = assay: in vivo; set-up: species or system rat; conditions: IP A10 80 mg/kg single dose
Description: as §1, §2, §3

Solubility = conditions: water
Text: PBTE consists of a solution of 3% w/v benzyl alcohol, 8% w/v polysorbate 80, and 65% w/v polyethylene glycol (MW=300 daltons) in absolute ethanol. PBTE:D5W consists of PBTE diluted 1:1 in a solution of 5% dextrose in water. […] The solubility of the other compounds described herein can be obtained using standard techniques.

tumor cell lines = assay: In vitro growth assays, tumor cell lines; type: cell-based
Description: The assay measures protein content of acid-fixed cells using the counterion binding dye sulforhodamine B (SRB, Sigma). […] For other cell lines, the cells (2000 cells/well in 100 μL) were introduced into wells immediately after dispensing the drug solutions. After 4 days (37° C., 5% CO2) the monolayers were washed 3 times with PBS and fixed with 200 μL ice-cold 10% TCA (Fisher Scientific), and kept at 4° C. for 60 min. The TCA was removed and the fixed monolayers were washed 5 times with tap water and allowed to dry completely at room temperature on absorbent paper. The cellular protein was stained for 10 min with 100 μL 0.4% SRB dissolved in 1% acetic acid. After 5 washes with tap water, the dye was solubilized in 10 mM Tris base (100 μL per well) and absorbance read at 570 nm on a Dynatech plate reader model MR5000. Growth inhibition data are expressed as a percentage of absorbance detected in control wells which were treated with 0.4% DMSO alone. DMSO controls were not different from cells grown in regular growth medium. IC50 values were determined using a four parameter curve fit function.
For K562, DlB, L1210, 7TDl, T27A, and Colo320 DM cells, an MTT assay was used to assess cell growth. […] The absorbance was determined at 570 nm wavelength with a reference wavelength of 630 nm using an ELISA plate reader.

For `CC(O)=C(C#N)C(=O)Nc1ccc(C(F)(F)F)cc1` [Compound B11, 2-cyano-3-hydroxy-N-[4-(trifluoromethyl)phenyl]-2-butenamide], the “potency compared to A10, PDGF-stimulated DNA synthesis” value (T98G cells) was “equipotent in inhibiting PDGF-stimulated DNA synthesis”, the “potency compared to A10, PDGF-stimulated cell cycle progression” value [1] was “equipotent” and the “inhibition of tumor growth compared with A10” value (C6 glioma cells; B11 15 mg/kg/day (DMSO) vs A10 15 mg/kg/day (DMSO)) was “to the same extent”. The “potency compared to A10, growth of C6 tumors in vivo” value (C6 glioma cells; rat, in vivo) was “equipotent in the inhibition of the growth of C6 tumors in vivo”, the “brain level, athymic mice compared to Wistar rats” value ([2]; 2 hr post-dose) was 11 times and the “brain level, athymic mice compared to Wistar rats” value ([2]; 4 hr post-dose) was 6.5 times. The “% Increase, multiple vs single dose” value ([2]; A10 20 mg/kg) was 64%, the “% Increase, multiple vs single dose” value ([2]; A10 40 mg/kg) was 69% and the “time detected in plasma” value ([2]; IP A10 40 mg/kg single dose) was “more than 48 hr”. For the same molecule, the “time detected in plasma” value ([2]; IP A10 […] mg/kg four weekly treatments, after last dose) was 48 h, the “time detected in plasma” value ([2]; IP A10 […] mg/kg single dose) was “more than 48 hr” and the “time detected in plasma” value [3] was “more than 48 hr”. The “time detected in plasma” value (in vivo) was “greater than 24 hr”, the solubility in water (Solubility) was “not very soluble in water” and the “potency compared to A10, in vitro growth assays” value (tumor cell lines) was “equipotent to A10”.

Reference: US6331555A, “Treatment of platelet derived growth factor related disorders such as cancers” (priority 1999, dated 2001)
